The text below walks through data of ChEMBL document CHEMBL1136364, “Synthesis and antimalarial activity of 2-methoxyprop-2-yl peroxides derivatives” (Bioorg Med Chem Lett, 2003).

For the test, the system named is Plasmodium falciparum. Briefly: In vitro antimalarial activity against Plasmodium falciparum FCR3. The test is classed as functional, organism-based.

Structures are written as SMILES. pIC50: −log10 of the molar value.

Usually pIC50 stands for −log10 of the IC50, conventionally taken in molar units. Read a low pIC50 as a large IC50. For `CCOC(=O)CCCOOC(C)(C)OC`, the pIC50 was 5.16. In turn, `COC(C)(C)OOCCC(C)C` showed a negative-log IC50 (pIC50) of 5.78. Under `CCCCCCOOC(C)(C)OC` stands 5.81; under `CCCCCCCCCCCCCCCCCCOOC(C)(C)OC`, 5.88. `CCCCCCCCCCCCOOC(C)(C)OC`: the negative logarithm of the IC50 (pIC50) was 6.17.

Regarding `CCCCCCCCCCCCCCCCOOC(C)(C)OC`, the pIC50 was 6.36. Under `COCCOOC(C)(C)OC` stands 5.49. The figure for `COC(C)(C)OOCCCOc1ccccc1` is 6.06.

In turn, `COC(C)(C)OOCCCCC1=CC[C@H]2C[C@@H]1C2(C)C` had a pIC50 of 6.32. Under `COC(C)(C)OOCCc1ccccc1` stands 6.28; under `CCCCCCCCOOC(C)(C)OC`, 5.59; under `COC(C)(C)OOCCCC#N`, 4.89.

Compound `COC(C)(C)OOCCC1=CC[C@H]2C[C@@H]1C2(C)C` had a pIC50 of 6.43.

On to `COC(C)(C)OOCCCc1ccccc1`, for which the pIC50 was 6.18. As to `COC(C)(C)OOCCCC1=CC[C@H]2C[C@@H]1C2(C)C`, the pIC50 is 6.22. The figure for `CCCCCCCOOC(C)(C)OC` is 6.10; for `CO[C@H]1O[C@@H]2O[C@@]3(C)CC[C@H]4[C@H](C)CC[C@@H]([C@H]1C)[C@@]24OO3` [ARTEMETHER] it is 7.85; for `C[C@@H]1CC[C@H]2[C@@H](C)C(=O)O[C@@H]3O[C@@]4(C)CC[C@@H]1[C@]32OO4` [ARTEMISININ] it is 7.26.
